# Experimental data published in patent US11236102B2, “Oxabicycloheptane prodrugs” (Lixte Biotechnology, Inc., priority 2015, dated 2022).
# Entries after “also recorded” stand apart in the source; their conditions may differ.
# What was measured:
# [1] = Pharmacokinetic study of 157 (iv, po) in SD rats: 157 and endothal in plasma, liver, brain; type: in vivo; set-up: Tmax: dose or concentration left out as unconfirmed; conditions: for Endothal plasma concentration: individual rats
# Description: The blood, liver and brain tissue samples were collected at predetermined times from rats. […] Compound were diluted shortly before use in 4% sodium bicarbonate for sterile injection (this is the standard pediatric solution of NaHCO3 with a pH of about 8.5).
# Compound 153 was freshly prepared by diluting the drugs shortly before use in 4% sodium bicarbonate for sterile injection (this is the standard pediatric solution of NaHCO3 with a pH of about 8.5). The final concentrations of 153 solutions were 0.25 mg/mL. The 153 solutions were administered via iv or po route at dose volume of 5 ml/kg according to the latest body weight. Compound 157 was freshly prepared by diluting the drugs shortly before use in 4% sodium bicarbonate for sterile injection (this is the standard pediatric solution of NaHCO3 with a pH of about 8.5). […] The 157 solutions were administered via iv or po route at dose volume of 5 ml/kg according to the latest body weight.
# Twelve (12) female SD rats per group were dosed by iv with 153 or 157. The rats were fasted overnight prior to dosing, with free access to water. Foods were withheld for 2 hours post-dose. Blood, liver and brain tissue samples in two animals each group were collected at each time point, within 10% of the scheduled time for each time point. Two extra animals were used for analytic method development.
# Blood (>0.3 mL) were collected via aorta abdominalis in anaesthetic animals into tubes containing heparin at 15 min, 1, 2, 6, 10 and 24 hours after iv administration. Liver and brain tissues were collected immediately after animal death. The liver and brain tissues were excised and rinsed with cold saline to avoid blood residual. Upon collection, each sample was placed on ice and the blood samples were subsequently centrifuged (4° C., 11000 rpm, 5 min) to separate plasma.
# The obtained plasma, liver and brain tissue samples were stored at −70° C. until LC-MS/MS analysis.
# Two (2) female SD rats per group were dosed by po with 153 or 157. The rats were fasted overnight prior to dosing, with free access to water. Foods were withheld for 2 hours post-dose. Blood samples (>0.3 mL) were collected via aorta abdominalis in anaesthetic animals into tubes containing heparin at 30 min, 1, 2, 6, 10 and 24 hours after po administration.
# To each sample, 30 μL IS-D (for blank samples, 20 μL acetonitrile:water (1:1) was added) and 300 ul acetonitrile was added. The sample mixture was vortexed for approximately 3 min. After centrifugation at 10000 rpm for 5 min at 4° C., 100 μL of the upper layer was transferred to a new tube and added 200 μL 0.4% formic acid in water (pH6.0). The mixture was vortexed for approximately 3 min before injected onto the LC/MS/MS system for analysis.
# On the day of the assay, the frozen liver and brain samples were thawed unassisted at room temperature. An about 200 mg weighed sample of each thawed tissue was placed into a plastic tube with water (0.6 mL) to facilitate homogenization. Tissue processing was conducted using a homogenizer for approximately 1 min, […] homogenate was transferred into a fresh Eppendorf tube. To each tube, 50 μL IS-D was added and mixed. Then 500 ul acetonitrile was added and the sample mixture was vortexed for approximately 3 min. After centrifugation at 10000 rpm for 5 min at 4° C., 100 μL of the upper layer was transferred to a new tube and evaporate the supernatant to dryness at 35° C. Reconstitute the residue with 200 μL of 0.4% formic acid in water (pH 6.0), and vortex for 3 min, submit for LC-MS/MS analysis.
# Frozen unknown plasma samples were completely thawed at room temperature and vortexed thoroughly. With a pipette, 50 μL of plasma was transferred into a 2.0 mL Eppendorf tube. 50 μL of 0.1N HCl and 800 μL ethyl acetate were added into each sample. The sample mixture was vortexed for approximately 3 min.
# [2] = Pharmacokinetic study of 100 (iv 0.5, 1.0, 1.5 mg/kg) in SD rats: 100 and endothal in plasma, liver, brain; type: in vivo; conditions: for Endothal brain concentration / Endothal plasma concentration: SD rats
# Description: 100 was administrated via iv route at 0.5, 1.0 and 1.5 mg/kg into SD rats. The blood, liver and brain tissue samples were collected at predetermined times from rats.
# Twelve (12) female SD rats per group were dosed by iv with 100. The rats were fasted overnight prior to dosing, with free access to water. Foods were withheld for 2 hours post-dose. Blood, liver and brain tissue samples in two animals each group were collected at each time point, within 10% of the scheduled time for each time point. Two extra animals were used for analytic method development. Blood (>0.3 mL) were collected via aorta abdominalis in anaesthetic animals into tubes containing heparin at 15 min, 1, 2, 6, 10 and 24 hours after iv administration. Liver and brain tissues were collected immediately after animal death. The liver and brain tissues were excised and rinsed with cold saline to avoid blood residual. Upon collection, each sample was placed on ice and the blood samples were subsequently centrifuged (4° C., 11000 rpm, 5 min) to separate plasma. The obtained plasma, liver and brain tissue samples were stored at −70° C. until LC-MS/MS analysis.
# AUC0-∞ (AUCINF) is the area under the plasma concentration-time curve with last concentration extrapolated based on the elimination rate constant.
# [3] = female, Sprague-Dawley, rat, in vivo, iv, 1.5 mg/kg
# [4] = 100 iv 0.5 mg/kg, 24 hr, individual rats
smiles,measurement,setting,value
"O=C(O)C1C2CCC(O2)C1C(=O)O (stereo not shown) [Endothal, 7-oxabicyclo[2.2.1]heptane-2,3-dicarboxylic acid]",detectability in brain samples,"[1]; endothal after single iv 157 at 1.5 mg/kg, 1.5 mg/kg",not detectable; also recorded: undetectable
same,Tmax,"[1]; female, SD, rat, in vivo, po",2 h
same,AUC,[1]; [3],374 ng·h/mL
same,Cmax,[1]; [3],3720 ng/mL
same,Endothal plasma concentration,"[1]; iv administration of 157, 10 hr",BLQ
same,Endothal plasma concentration,"[1]; iv administration of 157, 24 hr",BLQ
same,Endothal plasma concentration,"[1]; po administration of 157, 10 hr",BLQ
same,AUClast in liver,"[1]; rat, in vivo, iv, 1.5 mg/kg",15025 ng·h/g
same,Endothal brain concentration,"[2]; 100 iv 0.5 mg/kg, 0.25 hr, individual rats",BLQ
same,Endothal brain concentration,"[2]; 100 iv 0.5 mg/kg, 0.25 hr, mean",BLQ
same,Endothal brain concentration,"[2]; 100 iv 0.5 mg/kg, 1 hr, individual rats",BLQ
same,Endothal brain concentration,"[2]; 100 iv 0.5 mg/kg, 1 hr, mean",BLQ
same,Endothal brain concentration,"[2]; 100 iv 0.5 mg/kg, 2 hr, individual rats",BLQ
same,Endothal brain concentration,"[2]; 100 iv 0.5 mg/kg, 2 hr, mean",BLQ
same,Endothal brain concentration,"[2]; 100 iv 0.5 mg/kg, 6 hr, individual rats",BLQ
same,Endothal plasma concentration,"[2]; 100 iv 0.5 mg/kg, 6 hr, individual rats, 0.5 mg/kg",BLQ
same,Endothal brain concentration,"[2]; 100 iv 0.5 mg/kg, 6 hr, mean",BLQ
same,Endothal brain concentration,"[2]; 100 iv 0.5 mg/kg, 10 hr, individual rats",BLQ
same,Endothal brain concentration,"[2]; 100 iv 0.5 mg/kg, 10 hr, mean",BLQ
same,Endothal brain concentration,[2]; [4],BLQ
same,Endothal plasma concentration,[2]; [4],BLQ
same,Endothal brain concentration,"[2]; 100 iv 0.5 mg/kg, 24 hr, mean",BLQ
same,Endothal plasma concentration,"[2]; 100 iv 0.5 mg/kg, 24 hr, mean",BLQ
same,Endothal brain concentration,"[2]; 100 iv 1.0 mg/kg, 0.25 hr, individual rats",BLQ
same,Endothal brain concentration,"[2]; 100 iv 1.0 mg/kg, 0.25 hr, mean",BLQ
same,Endothal brain concentration,"[2]; 100 iv 1.0 mg/kg, 1 hr, individual rats",BLQ
same,Endothal brain concentration,"[2]; 100 iv 1.0 mg/kg, 1 hr, mean",BLQ
same,Endothal brain concentration,"[2]; 100 iv 1.0 mg/kg, 2 hr, individual rats",BLQ
same,Endothal brain concentration,"[2]; 100 iv 1.0 mg/kg, 2 hr, mean",BLQ
same,Endothal brain concentration,"[2]; 100 iv 1.0 mg/kg, 6 hr, individual rats",BLQ
same,Endothal brain concentration,"[2]; 100 iv 1.0 mg/kg, 6 hr, mean",BLQ
same,Endothal brain concentration,"[2]; 100 iv 1.0 mg/kg, 10 hr, individual rats",BLQ
same,Endothal brain concentration,"[2]; 100 iv 1.0 mg/kg, 10 hr, mean",BLQ
same,Endothal brain concentration,"[2]; 100 iv 1.0 mg/kg, 24 hr, individual rats",BLQ
same,Endothal brain concentration,"[2]; 100 iv 1.0 mg/kg, 24 hr, mean",BLO
same,Endothal brain concentration,"[2]; 100 iv 1.5 mg/kg, 0.25 hr, individual rats",BLQ
same,Endothal brain concentration,"[2]; 100 iv 1.5 mg/kg, 0.25 hr, mean",BLQ
same,Endothal brain concentration,"[2]; 100 iv 1.5 mg/kg, 1 hr, individual rats",BLQ
same,Endothal brain concentration,"[2]; 100 iv 1.5 mg/kg, 1 hr, mean",BLQ
same,Endothal brain concentration,"[2]; 100 iv 1.5 mg/kg, 2 hr, individual rats",BLQ
same,Endothal brain concentration,"[2]; 100 iv 1.5 mg/kg, 2 hr, mean",BLQ
same,Endothal brain concentration,"[2]; 100 iv 1.5 mg/kg, 6 hr, individual rats",BLQ
same,Endothal brain concentration,"[2]; 100 iv 1.5 mg/kg, 6 hr, mean",BLQ
same,Endothal brain concentration,"[2]; 100 iv 1.5 mg/kg, 10 hr, individual rats",BLQ
same,Endothal brain concentration,"[2]; 100 iv 1.5 mg/kg, 10 hr, mean",BLQ
same,Endothal brain concentration,"[2]; 100 iv 1.5 mg/kg, 24 hr, individual rats",BLQ
same,Endothal brain concentration,"[2]; 100 iv 1.5 mg/kg, 24 hr, mean",BLQ
same,half-life,"[2]; Sprague-Dawley, rat, in vivo",~6 h
same,detectability in brain samples,"[2]; endothal after single iv 100 at 0.5, 1.0 and 1.5 mg/kg",not detectable; also recorded: undetectable
same,AUClast in plasma,[2]; [3],546 to 4476 ng·h/mL
same,Cmax,[2]; [3],349 to 2960 ng/g
same,T1/2 in liver,[2]; [3],4.57 to 10.1 h
same,T1/2 in plasma,[2]; [3],6.25 to 7.06 h
same,mean Cmax in plasma,[2]; [3],577 to 1230 ng/mL
same,AUClast in liver,"[2]; rat, in vivo, iv, 1.5 mg/kg",2598 to 18434 ng·h/g
